Experiments:
[1] = test system: hamsters; assay: Post-coital antifertility activity in mated hamsters, oral route; format: in vivo, Syrian golden hamster; details: for reduction of live fetuses: oral, 20 mg/Kg, hamsters
Method: (§1) Representative experiments for assessing antifertility activity were carried out with female Syrian golden hamsters weighing 100 to 130 g. The animals were mated and the presence of sperm in the vagina was taken as evidence of mating. The day sperm was detected was considered day one of pregnancy, since in our laboratory and those of other investigators 90 to 100% of animals that mate as evidenced by vaginal sperm are pregnant.
(§2) Pregnancy was later confirmed at the time of autopsy by presence of fetuses or implantation sites in the uterus.
(§3) Even if an animal aborts the fetus, implantation scars still remain as evidence that the animal has been pregnant.
The animals were autopsied on day 14 of pregnancy and the uteri were examined for evidence of pregnancy (implantation sites, fetal resorptions or live fetuses), hemorrage, and evidence of abnormalities of the uterus, placenta or fetuses. A compound was considered to be active if there was a reduction of live fetuses in at least 60% of the treated animals and the presence of implantation sites proves the animal to have been pregnant. […] The compounds were then studied for dose-activity relationships and the corresponding ED50 values i.e., 100% activity (absence of live fetuses) in 50% of the animals, were also determined. The following table reports the ED50 values of some representative compounds of the invention:
Favorable results were also obtained by administering the compounds of the invention by oral route. The experiments for assessing this property were carried out on hamsters following the same procedure as above, with the obvious exception that the compounds were adminstered orally instead of subcutaneously.

[2] = test system: female Syrian golden hamsters; assay: Post-coital antifertility activity in mated hamsters, subcutaneous (autopsy on day 14: implantation sites, live fetuses); format: in vivo, Syrian golden hamster; details: for ED50: Mesocricetus auratus, sc, s.c. hamsters, days 4-8 of pregnancy, read-out: ED50 (100% activity, i.e. absence of live fetuses, in 50% of the animals); for antifertility activity (active according to the criteria): s.c. in sesame oil, 10 mg/kg daily for 5 days (days 4-8 of pregnancy), hamsters
Method: as §1, §2, §3
The animals were autopsied on day 14 of pregnancy and the uteri were examined for evidence of pregnancy (implantation sites, fetal resorptions or live fetuses), hemorrage, and evidence of abnormalities of the uterus, placenta or fetuses.

In the case of `COc1cccc(-c2n[nH]c(-c3ccccc3CO)n2)c1` [Example 1, 5-(2-hydroxymethylphenyl)-3-(3-methoxyphenyl)-1H-,1,2,4-triazole], the ED50 ([1]; Mesocricetus auratus, po, p.o. hamsters, read-out: ED50 (100% activity, i.e. absence of live fetuses, in 50% of the animals)) is reported as 10 mg/kg, the “reduction of live fetuses” value [1] is reported as 60% and the ED50 [2] is reported as 0.08 mg/kg. The “antifertility activity (active according to the criteria)” value [2] was “active”.
`COc1cccc(-c2nc(-c3ccccc3C=O)n[nH]2)c1` [Example 3, 2-[5-(3-methoxyphenyl)-1H-1,2,4-triazol-3yl]benzaldehyde] was tested, and the “reduction of live fetuses” value [1] was 60%, the ED50 [2] was 0.1 mg/kg and the “antifertility activity (active according to the criteria)” value [2] was “active”.

— patent US4370337A, “1,2,4-Triazole derivatives as antifertility agents and pharmaceutical compositions containing them” (Gruppo Lepetit S.p.A., priority 1980, dated 1983)
